Assay results: patent US4450269A, “Mono-5-substituted-3-chloro-4H-1,2,6-thiadiazin-4-one antifungal agents” (FMC Corporation, priority 1980, dated 1984)
Structures can show the parent of a compound that is named as a salt. Where two headings read alike, the source gives them in different places.

What was measured:
[1] = test system: Erysiphe polygoni; assay: Spore germination test; assay type: cell-based; conditions: EP, 48 hours
How it was run: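 Compound was delivered in acetone into water agar at final 40, 10, 2.5 and 1 ppm. Alternaria solani and Botrytis cinerea spores were applied as sterile-water suspensions, while Erysiphe polygoni and Uromyces phaseoli spores were brushed on from infected leaves. After 48 h at 24° C., percentage germination was converted to a rating.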

[2] = test system: Phytophthora infestans; assay: whole plant or invertebrate; assay type: in vivo; conditions: for pest or weed control at 150 ppm: Phytophthora infestans, in Solanum lycopersicum, foliar, read-out: Percent Disease Control, foliar, tomato late blight, 150 ppm, protective
[3] = test system: Pyricularia oryzae; assay type: cell-based; conditions: PO, 48 hours

SMILES | Spore Germination Rating ([1]; 1.0 ppm) | Spore Germination Rating ([1]; 2.5 ppm) | Spore Germination Rating ([1]; 10 ppm) | Spore Germination Rating ([1]; 40 ppm) | pest or weed control at 150 ppm [2] [%] | Spore Germination Rating ([3]; 1.0 ppm) | Spore Germination Rating ([3]; 2.5 ppm) | Spore Germination Rating ([3]; 10 ppm) | Spore Germination Rating ([3]; 40 ppm) | Percent Disease Control, foliar, tomato late blight ([2]; 150 ppm, protective, hydrochloride) [%] | Spore Germination Rating ([3]; 2.5 ppm, hydrochloride)
O=c1c(Cl)nsnc1Oc1cccc(C(F)(F)F)c1 [Compound 44, 3-chloro-5-[(3-trifluoromethyl)phenoxy]-4H--1,2,6-thiadiazin-4-one] | 3 (60-80) | 1 (10-40) | 0 (0-10) | 0 (0-10) | 0 | 1 (10-40) | 0 (0-10) | 0 (0-10) | 0 (0-10) |  | 
C[S+]([O-])c1ccc(Oc2nsnc(Cl)c2=O)cc1 (centres unmarked) [Compound 40, 3-chloro-5-[(4-methylsulfinyl)phenoxy]-4H-1,2,6,-thiadiazin-4-one] | 4 (80-100) | 4 (80-100) | 4 (80-100) | 1 (10-40) | 75 | 4 (80-100) | 3 (60-80) | 4 (80-100) | 1 (10-40) |  | 
Cc1ccc(Oc2nsnc(Cl)c2=O)c(C)c1 [Compound 23, 3-chloro-5-(2,4-dimethylphenoxy)-4H--1,2,6-thiadiazin-4-one] | 4 (80-100) | 4 (80-100) | 3 (60-80) | 1 (10-40) | 0 | 4 (80-100) | 0 (0-10) | 0 (0-10) | 0 (0-10) |  | 
CSc1ccc(Oc2nsnc(Cl)c2=O)cc1 [Compound 39, 3-chloro-5-[(4-methylthio)phenoxy]-4H-1,2,6,-thiadiazin-4-one] | 2 (40-60) | 1 (10-40) | 2 (40-60) | 0 (0-10) | 0 | 2 (40-60) | 1 (10-40) | 1 (10-40) | 0 (0-10) |  | 
CC(=O)Nc1cccc(Oc2nsnc(Cl)c2=O)c1 [Compound 42, 3-[(3-N--acetylamino)-phenoxy]-5-chloro-4H--1,2,6-thiadiazin-4-one] | 4 (80-100) | 4 (80-100) | 4 (80-100) | 4 (80-100) | 0 | 4 (80-100) | 4 (80-100) | 3 (60-80) | 0 (0-10) |  | 
COc1cc(Cl)cc(Oc2nsnc(Cl)c2=O)c1 [Compound 52, 3-chloro-5-[(3-chloro-5-methoxy)phenoxy]-4H--1,2,6-thiadiazin-4-one] | 4 (80-100) | 2 (40-60) | 0 (0-10) | 0 (0-10) | 50 | 4 (80-100) | 0 (0-10) | 0 (0-10) | 0 (0-10) |  | 
N#Cc1ccc(Oc2nsnc(Cl)c2=O)cc1 [Compound 10, 3-chloro-5-(4-cyanophenoxy)-4H--1,2,6-thiadiazin-4-one] | 2 (40-60) | 2 (40-60) | 2 (40-60) | 1 (10-40) | 100 | 0 (0-10) | 0 (0-10) | 0 (0-10) | 0 (0-10) |  | 
O=c1c(Cl)nsnc1Oc1ccccc1Br [Compound 34, 3-chloro-5-(2-bromophenoxy)-4H-1,2,6,-thiadiazin-4-one] | 0 (0-10) | 2 (40-60) | 0 (0-10) | 0 (0-10) | 0 | 1 (10-40) | 0 (0-10) | 0 (0-10) | 0 (0-10) |  | 
Cc1cc(Oc2nsnc(Cl)c2=O)cc(C)c1Cl [Compound 59, 3-chloro-5-[(4-chloro-3,5-dimethyl)phenoxy]-4H--1,2,6-thiadiazin-4-one] | 2 (40-60) | 1 (10-40) | 1 (10-40) | 1 (10-40) | 0 | 0 (0-10) | 0 (0-10) | 0 (0-10) | 0 (0-10) |  | 
Cc1cc(C)cc(Oc2nsnc(Cl)c2=O)c1 [Compound 25, 3-chloro-5-(3,5-dimethylphenoxy)-4H--1,2,6-thiadiazin-4-one] | 4 (80-100) | 4 (80-100) | 0 (0-10) | 0 (0-10) | 100 | 3 (60-80) | 0 (0-10) | 0 (0-10) | 0 (0-10) |  | 
O=c1c(Cl)nsnc1Oc1c(Cl)c(Cl)c(Cl)c(Cl)c1Cl [Compound 31, 3-chloro-5-(pentachlorophenoxy)-4H--1,2,6-thiadiazine-4-one] | 0 (0-10) | 0 (0-10) | 1 (10-40) | 0 (0-10) | 0 | 0 (0-10) | 0 (0-10) | 0 (0-10) | 0 (0-10) |  | 
Nc1ccc(Oc2nsnc(Cl)c2=O)cc1 [Compound 27, 5-(4-aminophenoxy)-3-chloro-4H--1,2,6-thiadiazine-4-one hydrochloride] |  |  |  |  |  |  |  |  |  | 98 | 0 (0-10)
COc1cc(Oc2nsnc(Cl)c2=O)cc(OC)c1C(C)=O [Compound 61, 3-[(4-acetyl-3,5-dimethoxy)-phenoxy]-5-chloro-4H--1,2,6-thiadiazin-4-one] | 1 (10-40) | 1 (10-40) | 1 (10-40) | 0 (0-10) | 0 | 4 (80-100) | 4 (80-100) | 2 (40-60) | 1 (10-40) |  | 
O=c1c(Cl)nsnc1Oc1cccc2ccccc12 [Compound 32, 3-chloro-5(1-naphthoxy)-4H-1,2,6-thiadiazin-4-one] | 2 (40-60) | 2 (40-60) | 0 (0-10) | 0 (0-10) | 0 | 2 (40-60) | 0 (0-10) | 0 (0-10) | 0 (0-10) |  | 
Cc1ccc(Oc2nsnc(Cl)c2=O)cc1 [Compound 3, 3-chloro-5-(4-methylphenoxy)-4H--1,2,6-thiadiazin-4-one] | 4 (80-100) | 4 (80-100) | 4 (80-100) | 1 (10-40) | 50 | 0 (0-10) | 4 (80-100) | 0 (0-10) | 0 (0-10) |  | 
O=c1c(Cl)nsnc1Oc1c(Cl)cc(Cl)cc1Cl [Compound 30, 3-chloro-5-(2,4,6-trichlorophenoxy)-4H--1,2,6-thiadiazin-4-one] | 1 (10-40) | 0 (0-10) | 0 (0-10) | 0 (0-10) | 0 | 3 (60-80) | 0 (0-10) | 0 (0-10) | 0 (0-10) |  | 
O=c1c(Cl)nsnc1Oc1ccc(Cl)c(Cl)c1 [Compound 16, 3-chloro-5-(3,4-dichlorophenoxy)-4H--1,2,6-thiadiazin-4-one] | 4 (80-100) | 3 (60-80) | 1 (10-40) | 4 (80-100) | 0 | 0 (0-10) | 0 (0-10) | 0 (0-10) | 0 (0-10) |  | 
CC(C)(C)c1ccc(Oc2nsnc(Cl)c2=O)cc1 [Compound 4, 3-chloro-5-(4-tert-butylphnoxy)-4H--1,2,6-thiadiazin-4-one] | 4 (80-100) | 3 (60-80) | 2 (40-60) | 0 (0-10) | 0 | 4 (80-100) | 4 (80-100) | 0 (0-10) | 0 (0-10) |  | 
COc1ccc(Cl)c(Oc2nsnc(Cl)c2=O)c1 [Compound 51, 3-chloro-5-[(2-chloro-5-methoxy)phenoxy]-4H--1,2,6-thiadiazin-4-one] | 4 (80-100) | 4 (80-100) | 0 (0-10) | 0 (0-10) | 90 | 3 (60-80) | 0 (0-10) | 0 (0-10) | 0 (0-10) |  | 
COc1ccc(Oc2nsnc(Cl)c2=O)cc1 [Compound 5, 3-chloro-5-(4-methoxyphenoxy)4H--1,2,6-thiadiazin-4-one] | 4 (80-100) | 4 (80-100) | 4 (80-100) | 0 (0-10) | 0 | 4 (80-100) | 1 (10-40) | 0 (0-10) | 0 (0-10) |  | 
O=c1c(Cl)nsnc1Oc1ccccc1Cl [Compound 14, 3-chloro-5-(2-chlorophenoxy)-4H--1,2,6-thiadiazin-4-one] | 4 (80-100) | 4 (80-100) | 2 (40-60) | 0 (0-10) | 0 | 3 (60-80) | 0 (0-10) | 0 (0-10) | 0 (0-10) |  | 
CC(=O)Nc1ccccc1Oc1nsnc(Cl)c1=O [Compound 43, 3-[(2-acetylamino)-phenoxy]-5-chloro-4H--1,2,6-thiadiazin-4-one] | 4 (80-100) | 4 (80-100) | 4 (80-100) | 1 (10-40) | 0 | 4 (80-100) | 4 (80-100) | 4 (80-100) | 1 (10-40) |  | 
